Assay [1] addresses T1, human MCH receptor (Homo sapiens, UniProt Q99705).
T1 construct: expressed in transfected cells
The assay is described as follows: hMCH FLIPR calcium mobilization assay. The class given is cell-based. Background: Calcium flux is commonly read through the fluorescence of an indicator in the cells.

Assay [2] concerns the target T2, rat MCH 1 receptor (rMCH1R) (Rattus norvegicus, UniProt P97639).
T2 construct: expressed in transfected cells; host or cells: HEK 293 (membranes)
Kind of assay: 125I-MCH ligand binding assay, rMCH. The following applies: HEK 293 membranes, 0.2 nM 125I native-MCH. The procedure, abridged:
(§1)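 HEK293 membranes expressing rat or human MCH1R (100 µg tissue) were incubated for 90 min at 30 °C with 0.2 nM 125I-native-MCH and test compound in HEPES/MgCl2/BSA buffer with protease inhibitors, pH 7.4. Non-specific binding used 1 µM cold MCH. Filter-bound radioactivity gave IC50 by nonlinear regression.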

Assay [3] deals with T3, human MCH 1 receptor (hMCH1R) (Homo sapiens, UniProt Q99705).
T3 construct: expressed in transfected cells; host or cells: HEK 293 (membranes)
T3 sequence (Q99705 whole entry): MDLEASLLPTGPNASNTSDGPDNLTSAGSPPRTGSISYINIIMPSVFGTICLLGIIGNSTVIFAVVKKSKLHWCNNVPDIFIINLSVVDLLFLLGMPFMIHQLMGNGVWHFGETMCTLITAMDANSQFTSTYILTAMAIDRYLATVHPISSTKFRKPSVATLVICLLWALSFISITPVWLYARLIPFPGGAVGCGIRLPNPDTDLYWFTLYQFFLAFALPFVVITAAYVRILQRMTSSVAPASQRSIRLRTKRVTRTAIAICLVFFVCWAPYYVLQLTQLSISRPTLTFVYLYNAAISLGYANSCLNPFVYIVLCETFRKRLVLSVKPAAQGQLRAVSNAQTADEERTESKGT
The assay is described as follows: 125I-MCH ligand binding assay, hMCH. Particulars: HEK 293 membranes, 0.2 nM 125I native-MCH. In a few lines: as §1

For assay [4], the target named is T4, rat MCH1 receptor (Rattus norvegicus, UniProt P97639). Kind of assay: HT-PS100 calcium mobilization functional assay. The class given is cell-based. On the set-up: expressed in transfected cells.
T4 sequence (P97639 whole entry): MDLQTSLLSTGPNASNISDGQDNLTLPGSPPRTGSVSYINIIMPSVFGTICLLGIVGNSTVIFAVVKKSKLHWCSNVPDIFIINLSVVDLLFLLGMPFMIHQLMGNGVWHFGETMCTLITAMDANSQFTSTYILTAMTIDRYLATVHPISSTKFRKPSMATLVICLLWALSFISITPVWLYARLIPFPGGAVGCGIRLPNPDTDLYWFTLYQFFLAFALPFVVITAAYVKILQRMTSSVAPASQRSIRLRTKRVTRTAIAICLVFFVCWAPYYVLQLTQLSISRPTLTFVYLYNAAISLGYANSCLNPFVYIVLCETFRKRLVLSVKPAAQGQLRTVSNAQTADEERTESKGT
Assay [5] deals with T4, rat MCH1 receptor. The assay is described as follows: rMCH FLIPR calcium mobilization assay (CHOK1-Gqi cells). The class given is cell-based. On the set-up: expressed in transfected cells; host or cells: CHOK1-Gqi. The following applies: CHOK1-Gqi cells, rat MCH1 receptor. On the procedure:
Pharmacological analyses were conducted using either a HT-PS100 device (Axiom Biotechnologies, San Diego, Calif.), which provides high-resolution dose-response fluorometric measurements of [Ca^++]i mobilization, or using a FLIPR® device (Molecular Devices, Sunnyvale, Calif.).
Materials: Pharmacological analysis was conducted using a FLIPR® device (Molecular Devices, Sunnyvale, Calif.). CHOK1-Gqi cells were stably transfected with the rat MCH1 receptor and maintained under G418 antibiotic pressure. FLIPR® assay buffer consisted of phenol red-free DMEM+2.5 mM probenecid. […]. Test compounds were prepared as 10 mM stocks in 100% DMSO and diluted to a top end working concentration of 10 μM in 96 well black, flat bottom, collagen-I coated plates (Becton Dickinson, Bedford, Mass.).
Methods: CHOK1-Gqi cells stably expressing MCH1R were maintained in Dulbeco's modified Eagle's medium (GIBCO/Life Technologies, Rockville, Md.) supplemented with 2 mM glutamine and 10% dialyzed fetal bovine serum (HyCLone, Logan, Utah) at 37° C., 5% CO2. Cells were harvested by 10′ treatment with Versene (GIBCO/Life Technologies) followed by trituration, washing twice with cold (4° C.) hybridoma medium (Serum/Protein free, with L-glutamine, sodium bicarbonate, MOPS buffer) (Sigma-Aldrich Corp, St. Louis, Mo.) and replated onto 96 well black, flat bottom, collagen-I coated plates to a density of 10,000 cells/well. The cells were then loaded with the fluorescent calcium indicator Fura-2 (Molecular Probes, Eugene, Oreg.) at 1.6 μM for 60′ at room temperature. The loaded cells were then washed twice with 90 μl/well of wash buffer (1×HBSS, 20 mM HEPES, 2.5 mM probenecid).
Receptor-stimulated intracellular calcium responses were detected using FLIPR® by monitoring increases in the Fura-2 fluorescence response.
Test compounds were screened for MCH1R activity in the FLIPR® for both agonist and antagonist action. Agonist mode challenges were conducted at a maximum gradient concentration of 1 μM. Antagonist activity was tested by 10 min pre-incubation of cells at a compound concentration of defined to be 300× the EC50 of MCH (typically 1 μM), with subsequent introduction of MCH at a concentration 5-fold of EC50 as determined in preliminary experiments. […].
Several fixed concentrations of antagonist compounds were prepared in 10-fold increments, and presented to the cells in a gradient of increasing MCH concentration. Values for compound pA2 were calculated by linear regression of MCH EC50s as a function of antagonist concentration.

[6] abbreviates: 100 nM or less list, read-out: Ki in the hMCH FLIPR assay.
[7] abbreviates: 100 μM or less list, read-out: Ki in the hMCH FLIPR assay.
Where [8] appears, read: 100 μM or less list, read-out: IC50 in the rMCH binding assay.
Where [9] appears, read: 100 nM or less list, read-out: IC50 in the hMCH binding assay.
Setting [10] is: 100 μM or less list, read-out: IC50 in the hMCH binding assay.
Setting [11] is: HEK 293 cells stably transfected with rat MCH1 receptor, 100 nM or less list, read-out: Ki in the HT-PS100 assay.
Setting [12] is: 100 μM or less list, read-out: Ki in the rMCH FLIPR assay.
Setting [13] is: 100 nM or less list, read-out: IC50 in the rMCH binding assay.

Where two headings read alike, the source gives them in different places.

This note sets out measurements from patent US7514438B2, “Melanin concentrating hormone receptor antagonist” (Amgen, Inc., priority 2003, dated 2009).

T1 sequence (Q99705 whole entry): as the sequence (Q99705 whole entry) above
T2 sequence (P97639 whole entry): as the sequence (P97639 whole entry) above

Turning to `Cc1ccc([C@@H](c2nnnn2-c2c(C)cccc2C)N2CCN(C/C=C/c3ccccc3)CC2)cc1` (racemic) [Compound 55, 1-{[1-(2,6-dimethyiphenyl)-1H-tetrazol-5-yl]-p-tolylmethyl]-4-(3-phenylallyl)piperazine], the Ki (as a rule, a measure of affinity in units of concentration, obtained from inhibition or displacement) is at most 0.1 µM in assay [1] (setting [6]), at most 100 µM in assay [1] (setting [7]), at most 0.1 µM in assay [4] (setting [11]) and at most 100 µM in assay [5] (setting [12]). The IC50 – broadly, the point on the concentration scale where inhibition reaches its midpoint – in assay [2] (setting [8]) was at most 100 µM; in assay [3] (setting [9]), at most 0.1 µM; in assay [3] (setting [10]), at most 100 µM.
`COc1cccc([C@@H](c2nnnn2-c2c(C)cccc2C)N2CCN(C/C=C/c3ccccc3)CC2)c1` (racemic) [Compound 77, 1-[[1-(2,6-dimethylphenyl)-1H-tetrazol-5-yl]-(3-methoxyphenyl)methyl]-4-(3-phenylallyl)piperazine]: the inhibition constant (Ki) was at most 100 µM in assay [1] (setting [7]), at most 0.1 µM in assay [4] (setting [11]) and at most 100 µM in assay [5] (setting [12]). The IC50 is at most 100 µM in assay [2] (setting [8]), at most 0.1 µM in assay [3] (setting [9]) and at most 100 µM in assay [3] (setting [10]).
Turning to `Cc1cccc(C)c1-n1nnnc1[C@H](c1ccc(Cl)c(Cl)c1)N1CCN(C/C=C/c2ccccc2)CC1` (racemic) [Compound 60, 1-{(3,4-dichlorophenyl)-[1-(2,6-dimethylphenyl)-1H-tetrazol-5-yl]methyl}-4-(3-phenylallyl)piperazine], the Ki was at most 100 µM in assay [1] (setting [7]), at most 0.1 µM in assay [4] (setting [11]) and at most 100 µM in assay [5] (setting [12]). Further, the 50% inhibitory concentration (IC50) in assay [2] (setting [8]) and in assay [3] (setting [10]) was at most 100 µM throughout.
Regarding `Cc1cccc(C)c1-n1nnnc1[C@H](c1cccc(C(F)(F)F)c1)N1CCN(C/C=C/c2ccccc2)CC1` (racemic) [Compound 56, 1-[[1-(2,6-dimethyiphenyl)-1H-tetrazol-5-yl]-(3-trifluoromethyiphenyl)methyl]-4-(3-phenylallyl)piperazine], the Ki in assay [1] (setting [6]) was at most 0.1 µM; in assay [1] (setting [7]) it was at most 100 µM; in assay [4] (setting [11]), at most 0.1 µM; in assay [5] (100 nM or less list, read-out: Ki in the rMCH FLIPR assay), at most 0.1 µM; in assay [5] (setting [12]) it was at most 100 µM. For the same compound, the IC50 in assay [2] (setting [13]) was at most 0.1 µM; in assay [2] (setting [8]), at most 100 µM; in assay [3] (setting [9]), at most 0.1 µM; in assay [3] (setting [10]) it was at most 100 µM.
For `Cc1cccc(C)c1-n1nnnc1[C@H](c1ccc(-n2ccnc2)cc1)N1CCN(C/C=C/c2ccccc2)CC1` (racemic) [Compound 78, 1-[[1-(2,6-dimethylphenyl)-1H-tetrazol-5-yl]-(4-imidazol-1-ylphenyl)methyl]-4-(3-phenylallyl)piperazine], the values for the Ki in assay [1] (setting [7]), in assay [4] (setting [11]) and in assay [5] (setting [12]) were at most 100 µM, at most 0.1 µM and at most 100 µM, respectively. Besides, the IC50 in assay [2] (setting [8]) was at most 100 µM; in assay [3] (setting [9]) it was at most 0.1 µM; in assay [3] (setting [10]), at most 100 µM.
On to `Cc1cccc(C)c1-n1nnnc1[C@H](c1cccs1)N1CCN(C/C=C/c2ccccc2)CC1` (racemic) [Compound 53, 1-{[1-(2,6-dimethyiphenyl)-1H-tetrazol-5-yl]thiophen-2-ylmethyl}-4-(3-phenylallyl)piperazine], for which the Ki was at most 0.1 µM in assay [1] (setting [6]), at most 100 µM in assay [1] (setting [7]), at most 0.1 µM in assay [4] (setting [11]) and at most 100 µM in assay [5] (setting [12]). For the same compound, the IC50 in assay [2] (setting [8]) and in assay [3] (setting [10]) was at most 100 µM throughout.
For the compound `Cc1cccc(C)c1-n1nnnc1[C@H](c1cccc(OCCO)c1)N1CCN(C/C=C/c2ccccc2)CC1` (racemic) [Compound 84, 2-(3-{[1-(2,6-dimethylphenyl)-1H-tetrazol-5-yl]-[4-(3-phenylallyl)piperazin-1-yl]methyl}phenoxy)ethanol], the results for the Ki in assay [1] (setting [7]), in assay [4] (setting [11]) and in assay [5] (setting [12]) were at most 100 µM, at most 0.1 µM and at most 100 µM, respectively. In addition, the IC50 in assay [2] (setting [13]) is at most 0.1 µM; in assay [2] (setting [8]), at most 100 µM; in assay [3] (setting [9]) it was at most 0.1 µM; in assay [3] (setting [10]) it was at most 100 µM.
`Cc1cccc(C)c1-n1nnnc1[C@H](c1ccc2c(c1)OCO2)N1CCN(C/C=C/c2ccccc2)CC1` (racemic) [Compound 83, 1-{benzo[1,3]dioxol-5-yl-[1-(2,6-dimethylphenyl)-1H-tetrazol-5-yl]methyl}-4-(3-phenylallyl)piperazine]: the inhibitory constant (Ki) is at most 100 µM in assay [1] (setting [7]), at most 0.1 µM in assay [4] (setting [11]) and at most 100 µM in assay [5] (setting [12]). Also, the IC50 in assay [2] (setting [8]) and in assay [3] (setting [10]) was at most 100 µM throughout.
For the compound `Cc1cccc(C)c1-n1nnnc1[C@H](c1cccc(O)c1)N1CCN(C/C=C/c2ccccc2)CC1` (racemic) [Compound 82, 3-{[1-(2,6-dimethylphenyl)-1H-tetrazol-5-yl]-[4-(3-phenylallyl)piperazin-1-yl]methyl}phenol], the inhibitory constant (Ki) in assay [1] (Ki in the hMCH FLIPR assay, 100 nM or less list) is at most 0.1 µM; in assay [1] (Ki in the hMCH FLIPR assay, 100 μM or less list), at most 100 µM; in assay [4], at most 0.1 µM; in assay [5] (Ki in the rMCH FLIPR assay, 100 μM or less list) it was at most 100 µM. Also, the IC50 in assay [2] (IC50 in the rMCH binding assay, 100 μM or less list) was at most 100 µM; in assay [3] (IC50 in the hMCH binding assay, 100 μM or less list), at most 100 µM.
With `Cc1cccc(C)c1-n1nnnc1[C@H](c1ccccc1)N1CCN(C/C=C/c2ccccc2)CC1` [Compound 1, 1-{[1-(2,6-dimethyiphenyl)-1H-tetrazol-5-yl]phenylmethyl}-4-(3-phenylallyl)piperazine], the Ki in assay [1] (setting [7]) was at most 100 µM; in assay [4] (setting [11]), at most 0.1 µM; in assay [5] (setting [12]) it was at most 100 µM. Further, the concentration for half-maximal inhibition (IC50) in assay [2] (setting [13]) is at most 0.1 µM; in assay [2] (setting [8]), at most 100 µM; in assay [3] (setting [9]), at most 0.1 µM; in assay [3] (setting [10]) it was at most 100 µM.
Turning to `Cc1cccc(C)c1-n1nnnc1[C@H](c1cccc(C#N)c1)N1CCN(C/C=C/c2ccccc2)CC1` (racemic) [Compound 79, 3-{[1-(2,6-dimethylphenyl)-1H-tetrazol-5-yl]-[4-(3-phenylallyl)piperazin-1-yl]methyl}benzonitrile], the Ki in assay [1] (setting [6]) is at most 0.1 µM; in assay [1] (setting [7]), at most 100 µM; in assay [4] (setting [11]), at most 0.1 µM; in assay [5] (setting [12]) it was at most 100 µM. The IC50 is at most 0.1 µM in assay [2] (setting [13]), at most 100 µM in assay [2] (setting [8]) and at most 100 µM in assay [3] (setting [10]).
As for `Cc1cccc(C)c1-n1nnnc1[C@H](c1ccc(OCc2ccccc2)cc1)N1CCN(C/C=C/c2ccccc2)CC1` (racemic) [Compound 70, 1-{(4-benzyloxyphenyl)-[1-(2,6-dimethylphenyl)-1H-tetrazol-5-yl]methyl}-4-(3-phenylallyl)piperazine], the Ki in assay [1] (setting [6]) was at most 0.1 µM; in assay [1] (setting [7]), at most 100 µM; in assay [4] (setting [11]), at most 0.1 µM; in assay [5] (setting [12]), at most 100 µM. Moreover, the half-inhibitory concentration (IC50) is at most 0.1 µM in assay [2] (setting [13]), at most 100 µM in assay [2] (setting [8]), at most 0.1 µM in assay [3] (setting [9]) and at most 100 µM in assay [3] (setting [10]).
